Reference: patent US20050026812A1, “Conjugated nitro alkene anticancer agents based on isoprenoid metabolism” (Arizona Disease Control Research Commission, priority 2003, published 2005)
Like-named read-outs stand apart in the source and are kept apart here.

Tests used:
Urinary bladder (T-24) = assay: Cancer cell growth inhibition in culture, Urinary bladder (T-24); type: cell-based, human; details: 50% growth inhibition
Excerpt: (§1) Cancer cell growth inhibition.

Prostate (PC-3) = assay: Cancer cell growth inhibition in culture, Prostate (PC-3); type: cell-based; details: Homo sapiens, 50% growth inhibition
Excerpt: as §1

Fibrosarcoma (HT-1080) = assay: Cancer cell growth inhibition in culture, Fibrosarcoma (HT-1080); type: cell-based, human; details: 50% growth inhibition
Excerpt: as §1

Colorectal (Colo-205) = assay: Cancer cell growth inhibition in culture, Colorectal (Colo-205); type: cell-based, human; details: 50% growth inhibition
Excerpt: as §1

[1] = tested on: Acute myeloid leukemia (HL-60); assay: Cancer cell growth inhibition in culture, Acute myeloid leukemia (HL-60); type: cell-based, human; details: 50% growth inhibition
Excerpt: as §1

NSC Lung (H-460) = assay: Cancer cell growth inhibition in culture, NSC Lung (H-460); type: cell-based; details: Homo sapiens, NCI-H460, 50% growth inhibition
Excerpt: as §1

Colon (HT-29) = assay: Cancer cell growth inhibition in culture, Colon (HT-29); type: cell-based, human; details: 50% growth inhibition
Excerpt: as §1

Colon (Caco-2) = assay: Cancer cell growth inhibition in culture, Colon (Caco-2); type: cell-based, human; details: 50% growth inhibition
Excerpt: as §1

[2] = target: T1, human recombinant protein farnesyltransferase (FTase) (Homo sapiens, UniProt P49354+P49356); assay: FTase fluorescence assay after pre-incubation with inhibitor; type: biochemical; details: 30-minute treatment in vitro, 30° C.
T1 construct: gift from Professor Patrick Casey, Duke University
Procedure: Preparation of Ds-GCVLS—Ds-GCVLS was prepared by a method analogous to a published procedure. Synthesis was performed by use of a Millipore 9050 Plus PepSynthesizer that employed standard Fmoc solid phase peptide synthesis methodology. PS-PEG resin and Fmoc protected amino acids were obtained from Millipore. The N-dansylglycine was from Sigma Chemical Co. Peptide purification was performed by RP-HPLC on an Alltech Macrosphere RP300 C8 column. Elution was accomplished with a linear gradient from aqueous 10 mM trifluoroacetic acid to 10 mM trifluoroacetic acid in acetonitrile. Lyophilization yielded a pale yellow solid. […] Concentrations of Ds-GCVLS were determined by use of the extinction coefficient of the dansyl group at 340 nm (ε=4250 M-1 cm-1). […]
FTase assay—The fluoresence assay conditions were adapted from a published method. […] Enzyme activity (approximately 60 nM FTase) was monitored at saturating substrate concentrations (10 μM farnesyl diphosphate, ammonium salt, prepared by successive dilutions of a commercial 2.3 mM solution in methanol:10 mM aqueous NH4OH (7:3) into assay buffer, and 1.0 FM Ds-GCVLS) by measurement of the increase in fluorescence emission observed at λ=505 nm as FTase farnesylated Ds-GCVLS for a period of 10 min. […] All fluorescence assays were conducted in a 4 mm×4 mm quartz cuvette with excitation at 340 nm. […]

Prostate (DU-145) = assay: Cancer cell growth inhibition in culture, Prostate (DU-145); type: cell-based; details: Homo sapiens
Excerpt: (§2) Compound RG-14 was also effective at inhibiting the growth of human cancer cells in culture. The GI50 values of this compound against specified human cancer cells and mouse leukemia cells grown in culture are shown in Table 2.
as §1

Pancreatic (BXPC-3) = assay: Cancer cell growth inhibition in culture, Pancreatic (BXPC-3); type: cell-based; details: Homo sapiens
Excerpt: as §2, §1

Colon (KM20L2) = assay: Cancer cell growth inhibition in culture, Colon (KM20L2); type: cell-based; details: Homo sapiens, KM-20L2
Excerpt: as §2, §1

Lung (NCI-H460) = assay: Cancer cell growth inhibition in culture, Lung (NCI-H460); type: cell-based; details: Homo sapiens
Excerpt: as §2, §1

Mouse P388 leukemia = assay: Cancer cell growth inhibition in culture, Mouse P388 leukemia; type: cell-based; details: read-out: ED50 (the source's name)
Excerpt: as §2, §1

Breast (MCF-7) = assay: Cancer cell growth inhibition in culture, Breast (MCF-7); type: cell-based; details: Homo sapiens, MCF7
Excerpt: as §2, §1

[3] = tested on: Central nervous system (SF268); assay: Cancer cell growth inhibition in culture, Central nervous system (SF268); type: cell-based; details: Homo sapiens, SF-268
Excerpt: as §2, §1

[4] = tested on: human cancer cells and mouse leukemia cells; assay: Cancer cell growth inhibition in culture, panel of Table 2; type: cell-based; details: cell lines of Table 2
Excerpt: as §2, §1

GI50 (Urinary bladder (T-24))	GI50 (Prostate (PC-3))	GI50 (Fibrosarcoma (HT-1080))	GI50 (Colorectal (Colo-205))	GI50 ([1]; Homo sapiens, read-out: GI50)	GI50 (NSC Lung (H-460))	GI50 (Colon (HT-29))	GI50 (Colon (Caco-2); Homo sapiens, read-out: GI50)	decrease of FTase activity ([2]; 5 μM)	inhibition at 50 µM ([2]; 50 μM)	GI50 [1]	GI50 (Colon (Caco-2))	GI50 (Prostate (DU-145))	GI50 (Pancreatic (BXPC-3))	GI50 (Colon (KM20L2))	GI50 (Lung (NCI-H460))	EC50 (Mouse P388 leukemia)	GI50 (Breast (MCF-7))	GI50 [3]	SMILES	anticancer cell growth activity [4]
10^−4 to 10^−5 molar	44 µM	10^−4 to 10^−5 molar	10^−4 to 10^−5 molar	> 100 µM	12 µM	10^−4 to 10^−5 molar	> 100 µM												CC(C)=CCCC(C)C/C=C/[N+](=O)[O-] (stereo not drawn) [RG-7, 4,8-dimethyl-1-nitronona-1,7-diene]	
10^−4 to 10^−5 molar	1.5 µM	10^−6 to 10^−7 molar	10^−4 to 10^−5 molar		11 µM	10^−4 to 10^−5 molar		35%	83%	10^−6 to 10^−7 molar	10^−4 to 10^−5 molar								CC(C)=CCC/C(C)=C/CCC(C)C/C=C(\C)[N+](=O)[O-] (racemic) [RG-4, 5,9,13-trimethyl-2-nitrotetradeca-2,8,12-triene]	
												72 µM	62 µM	77 µM	72 µM	26 µM	39 µM	73 µM	CC(C)=CCCC(C)CC=C(C)[N+](=O)[O-] (racemic) [RG-14, 5,9-dimethyl-2-nitrodeca-2,8-diene]	
												> 47 µM	> 47 µM	> 47 µM	> 47 µM	> 126 µM	> 47 µM	> 47 µM	CC(C)=CCCC(C)CCC(C)[N+](=O)[O-] (stereo not drawn) [SRG-8, reference compound]	did not show detectable anticancer cell growth activity
